Test results from ChEMBL document CHEMBL1158238, “New prenylflavones from the leaves of Epimedium saggitatum” (J Nat Prod, 1996).

System: Platelet
Assay: Inhibition of arachidonic acid-induced platelets aggregation by turbidimetry
Type: functional, cell-based

SMILES | IC50
C=C(C)C(O)Cc1cc(-c2cc(=O)c3c(O)cc(O)cc3o2)cc(CC=C(C)C)c1O (configuration not stated) [YINYANGHUO B] | 1.67 µM
C=C(C)C(O)Cc1cc(-c2cc(=O)c3c(O)cc(O)cc3o2)cc2c1OC(C)(C)C=C2 (configuration not stated) [YINYANGHUO A] | 7.14 µM
